Test results from patent US8063055B2, “Substituted pyridone compounds and methods of use” (Amgen Inc., priority 2007, dated 2011).
Where two headings read alike, the source gives them in different places.

What was measured:
[1] = test system: SCF-stimulated UT-7 cells; settings: Homo sapiens
Description: SCF and GM-CSF Stimulated UT7 Proliferation/Survival Assay:
The purpose of this assay is to test the general anti-proliferative/cytotoxic effect of small molecule compounds on SCF or GM-CSF-stimulated UT-7 cells. Preventing SCF stimulated proliferation/survival is consistent with an on-mechanism effect whereas inhibition of GM-CSF driven proliferation/survival is indicative of off-target effects. UT-7 is a factor dependent human megakaryoblastic leukemia cell line that can be grown in either IL-3, GM-CSF, EPO or SCF (these cells have been confirmed to carry wild type c-kit receptor). Cells are maintained in growth media (IMDM, 10% HI-FBS, 1×PGS, 1 ng/mL GM-CSF). […] Small molecule compounds are first diluted in 100% DMSO, then diluted 1:4 in RT assay media. […] The treated cells are incubated in a 37° C. humidified incubator with 5% CO2 for 3 days. The amount of ATP is then measured as a surrogate marker for cell viability. […] The amount of SCF or GM-CSF stimulated viable cells in the presence of compound compared with in the presence of vehicle alone (HI control) is calculated using the formula: % control (POC)=(cpd−average LO)/(average HI−average LO)*100. Data (consisting of POC and inhibitor concentration in μM) is fitted to a 4-parameter equation (y=A+((B−A)/(1+((x/C)^D))), where A is the minimum y (POC) value, B is the maximum y (POC), C is the x (cpd concentration) at the point of inflection and D is the slope factor) using a Levenburg-Marquardt non-linear regression algorithm.

[2] = biological target: T1, c-kit kinase enzyme (Homo sapiens, UniProt P10721); assay: C-kit Homogeneous Time Resolved Fluorescent (HTRF) kinase assay; assay type: biochemical
T1 construct: (catalytic domain, N-terminal GST tagged, unphosphorylated)

[3] = UT7, 72 h, read-out: UT7 Proliferation cell assay data
[4] = HTRF Fret enzyme assay data, c-kit catalytic domain, biotinylated Her-2 peptide substrate, ATP
[5] = UT7, read-out: average IC50 value in the SCF stimulated UT7 proliferation and survival assay
[6] = c-kit catalytic domain, biotinylated Her-2 peptide substrate, ATP, read-out: HTRF Fret enzyme assay data

T1 sequence (P10721 589-937 limits assumed): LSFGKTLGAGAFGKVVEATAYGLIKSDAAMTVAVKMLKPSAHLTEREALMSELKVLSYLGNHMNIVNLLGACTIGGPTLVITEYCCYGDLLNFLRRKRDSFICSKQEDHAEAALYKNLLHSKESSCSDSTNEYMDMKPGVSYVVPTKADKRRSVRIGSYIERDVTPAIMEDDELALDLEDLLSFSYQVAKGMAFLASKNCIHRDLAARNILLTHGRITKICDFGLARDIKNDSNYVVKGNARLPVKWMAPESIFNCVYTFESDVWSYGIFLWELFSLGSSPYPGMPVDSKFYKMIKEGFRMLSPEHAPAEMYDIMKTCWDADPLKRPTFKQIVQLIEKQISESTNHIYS

Row | Compound | IC50 [1, 3] | IC50 [2, 4] | further results
1 | Cc1ccc(-n2ccc(C)c(-c3ccc4nc(N)ncc4c3)c2=O)cc1Cl [Example 41, 3-(2-aminoquinazolin-6-yl)-1-(3-chloro-4-methylphenyl)-4-methylpyridin-2(1H)-one] | 12 nM | 8.21 nM | 
2 | Cc1ccn(-c2ccc(F)cc2)c(=O)c1-c1ccc2nc(N)ncc2c1 [Example 33, 3-(2-aminoquinazolin-6-yl)-1-(4-fluorophenyl)-4-methylpyridin-2(1H)-one] | 107 nM | 63 nM | 
3 | Cc1ccn(CCC2CCCC2)c(=O)c1-c1ccc2nc(N)ncc2c1 [Example 52, 3-(2-aminoquinazolin-6-yl)-1-(2-cyclopentylethyl)-4-methylpyridin-2(1H)-one] | 24 nM | 0.818 nM | IC50 [1, 5]: ≤ 1000 nM
4 | Cc1ccn(-c2ccc(N3CCOCC3)cc2)c(=O)c1-c1ccc2nc(N)ncc2c1 [Example 34, 3-(2-aminoquinazolin-6-yl)-4-methyl-1-(4-morpholinophenyl)pyridin-2(1H)-one] | 72 nM |  | IC50 [2, 6]: 13 nM
5 | COCCn1ccc(C)c(-c2ccc3nc(N)ncc3c2)c1=O [Example 56, 3-(2-aminoquinazolin-6-yl)-1-(2-methoxyethyl)-4-methylpyridin-2(1H)-one] |  | 2230 nM | 
6 | Cc1ccc(-n2ccc(C)c(-c3ccc4nc(N)ncc4c3)c2=O)cc1F [Example 6, 3-(2-aminoquinazolin-6-yl)-1-(3-fluoro-4-methylphenyl)-4-methylpyridin-2(1H)-one] | 12.1 nM |  | IC50 [2, 6]: 40.1 nM
7 | Cc1ccn(CCN(C)C)c(=O)c1-c1ccc2nc(N)ncc2c1 [Example 55, 3-(2-aminoquinazolin-6-yl)-1-(2-(dimethylamino)ethyl)-4-methylpyridin-2(1H)-one] |  | 1580 nM | 
8 | Cc1ccn(-c2ccc(F)c(C(F)(F)F)c2)c(=O)c1-c1ccc2nc(N)ncc2c1 [Example 43, 3-(2-aminoquinazolin-6-yl)-1-(4-fluoro-3-(trifluoromethyl)phenyl)-4-methylpyridin-2(1H)-one] | 41 nM | 21.2 nM | 
9 | Cc1ccn(-c2ccc3[nH]c(C(F)(F)F)nc3c2)c(=O)c1-c1ccc2nc(N)ncc2c1 [Example 10, 3-(2-aminoquinazolin-6-yl)-4-methyl-1-(2-(trifluoromethyl)-1H-benzo[d]imidazol-5-yl)pyridin-2(1H)-one] | 189 nM | 34.8 nM | 
10 | Cc1ccn(-c2ccc(C(F)(F)F)cc2)c(=O)c1-c1ccc2nc(N)ncc2c1 [Example 30, 3-(2-aminoquinazolin-6-yl)-4-methyl-1-(4-(trifluoromethyl)phenyl)pyridin-2(1H)-one] | 18 nM | 8 nM | 
11 | Cc1ccn(CCCC(C)C)c(=O)c1-c1ccc2nc(N)ncc2c1 [Example 61, 3-(2-aminoquinazolin-6-yl)-4-methyl-1-(4-methylpentyl)pyridin-2(1H)-one] | 4 nM | 1.12 nM | IC50 [1, 5]: ≤ 1000 nM
12 | Cc1ccn(CCC(C)C)c(=O)c1-c1ccc2nc(N)ncc2c1 [Example 25, 3-(2-aminoquinazolin-6-yl)-1-isopentyl-4-methylpyridin-2(1H)-one] | 84 nM | 18 nM | 
13 | Cc1ccn(-c2ccc(C(C)C)cc2)c(=O)c1-c1ccc2nc(N)ncc2c1 [Example 27, 3-(2-aminoquinazolin-6-yl)-1-(4-isopropylphenyl)-4-methylpyridin-2(1H)-one] | 5 nM | 2 nM | 
14 | Cc1ccn(-c2ccc(N3CCN(C(=O)OC(C)(C)C)CC3)cc2)c(=O)c1-c1ccc2nc(N)ncc2c1 [Example 36, tert-butyl 4-(4-(3-(2-aminoquinazolin-6-yl)-4-methyl-2-oxopyridin-1(2H)-yl)phenyl)piperazine-1-carboxylate] |  | 1370 nM | 
15 | Cc1ccn(-c2ccc(C(C)(C)C)cc2)c(=O)c1-c1ccc2nc(N)ncc2c1 [Example 12, 3-(2-amino-6-quinazolinyl)-1-(4-(1,1-dimethylethyl)phenyl)-4-methyl-2(1H)-pyridinone] | 16.5 nM | 2.06 nM | 
16 | Cc1ccn(-c2ccc3c(c2)NCC3(C)C)c(=O)c1-c1ccc2nc(N)ncc2c1 [Example 15, 3-(2-amino-6-quinazolinyl)-1-(3,3-dimethyl-2,3-dihydro-1H-indol-6-yl)-4-methyl-2(1H)-pyridinone] | 19.4 nM | 4.7 nM | 
17 | CC(=O)c1ccc(-n2ccc(C)c(-c3ccc4nc(N)ncc4c3)c2=O)cc1 [Example 28, 1-(4-acetylphenyl)-3-(2-aminoquinazolin-6-yl)-4-methylpyridin-2(1H)-one] |  |  | IC50 [2, 6]: 20 nM
18 | Cc1ccn(-c2ccc(F)c(F)c2)c(=O)c1-c1ccc2nc(N)ncc2c1 [Example 39, 3-(2-aminoquinazolin-6-yl)-1-(3,4-difluorophenyl)-4-methylpyridin-2(1H)-one] | 63 nM | 48 nM | 
19 | Cc1ccn(-c2ccc3c(c2)CCO3)c(=O)c1-c1ccc2nc(N)ncc2c1 [Example 17, 3-(2-amino-6-quinazolinyl)-1-(2,3-dihydro-1-benzofuran-5-yl)-4-methyl-2(1H)-pyridinone] | 15.1 nM | 7.58 nM | 

Row | Compound | IC50 [1, 3] | IC50 [2, 4] | further results
20 | COC(=O)Cn1ccc(C)c(-c2ccc3nc(N)ncc3c2)c1=O [Example 51, methyl 2-(3-(2-aminoquinazolin-6-yl)-4-methyl-2-oxopyridin-1(2H)-yl)acetate] |  | 1190 nM | 
21 | Cc1ccn(-c2ccc(-n3cccc3)cc2)c(=O)c1-c1ccc2nc(N)ncc2c1 [Example 5, 1-(4-(1H-pyrrol-1-yl)phenyl)-3-(2-aminoquinazolin-6-yl)-4-methylpyridin-2(1H)-one] | 4.83 nM | 2.25 nM | IC50 [1, 5]: ≤ 1000 nM
22 | Cc1ccn(-c2ccc(Cl)c(Cl)c2)c(=O)c1-c1ccc2nc(N)ncc2c1 [Example 40, 3-(2-aminoquinazolin-6-yl)-1-(3,4-dichlorophenyl)-4-methylpyridin-2(1H)-one] | 18 nM | 20 nM | 
23 | Cc1ccn(-c2ccc3c(ccn3-c3ccc4[nH]ccc4c3)c2)c(=O)c1-c1ccc2nc(N)ncc2c1 [Example 26, 3-(2-amino-6-quinazolinyl)-1-(1′H-1,5′-biindol-5-yl)-4-methyl-2(1H)-pyridinone] | 11 nM | 2 nM | 
24 | CCCn1ccc(C)c(-c2ccc3nc(N)ncc3c2)c1=O [Example 50, 3-(2-aminoquinazolin-6-yl)-4-methyl-1-propylpyridin-2(1H)-one] |  | 315 nM | IC50 ([2]; average IC50 value, inhibition of the c-kit kinase enzyme in a human HTRF assay, 1.0 uM or less): ≤ 1000 nM
25 | Cc1ccn(CCC2CC2)c(=O)c1-c1ccc2nc(N)ncc2c1 [Example 59, 3-(2-aminoquinazolin-6-yl)-1-(2-cyclopropylethyl)-4-methylpyridin-2(1H)-one] | 28 nM | 78.9 nM | 
26 | Cc1ccn(-c2cccc(OC(F)(F)F)c2)c(=O)c1-c1ccc2nc(N)ncc2c1 [Example 14, 3-(2-amino-6-quinazolinyl)-4-methyl-1-(3-((trifluoromethyl)oxy)phenyl)-2(1H)-pyridinone] | 16.2 nM | 4.04 nM | 
27 | Cc1ccn(-c2ccc3[nH]ccc3c2)c(=O)c1-c1ccc2nc(N)ncc2c1 [Example 18, 3-(2-amino-6-quinazolinyl)-4-methyl-1-(1H-indol-5-yl)-2(1H)-pyridinone] | 28.8 nM | 8.65 nM | 
28 | Cc1cc(-n2ccc(C)c(-c3ccc4nc(N)ncc4c3)c2=O)ccc1F [Example 42, 3-(2-aminoquinazolin-6-yl)-1-(4-fluoro-3-methylphenyl)-4-methylpyridin-2(1H)-one] | 18 nM |  | IC50 [2, 6]: 14 nM
29 | Cc1ccc(-n2ccc(C)c(-c3ccc4nc(N)ncc4c3)c2=O)cc1C [Example 13, 3-(2-amino-6-quinazolinyl)-1-(3,4-dimethylphenyl)-4-methyl-2(1H)-pyridinone] | 5.4 nM | 3.67 nM | 
30 | Cc1ccn(-c2ccc(Cl)c(F)c2)c(=O)c1-c1ccc2nc(N)ncc2c1 [Example 44, 3-(2-aminoquinazolin-6-yl)-1-(4-chloro-3-fluorophenyl)-4-methylpyridin-2(1H)-one] |  |  | IC50 [2, 6]: 59.7 nM
31 | CCCCn1ccc(C)c(-c2ccc3nc(N)ncc3c2)c1=O [Example 53, 3-(2-aminoquinazolin-6-yl)-1-butyl-4-methylpyridin-2(1H)-one] |  | 118 nM | 
32 | Cc1ccn(-c2cccc(C(F)(F)F)c2)c(=O)c1-c1ccc2nc(N)ncc2c1 [Example 20, 3-(2-amino-6-quinazolinyl)-4-methyl-1-(3-(trifluoromethyl)phenyl)-2(1H)-pyridinone] | 27.9 nM |  | 
33 | Cc1ccn(CC2CCCCC2)c(=O)c1-c1ccc2nc(N)ncc2c1 [Example 47, 3-(2-aminoquinazolin-6-yl)-1-(cyclohexylmethyl)-4-methylpyridin-2(1H)-one] |  | 132 nM | 
34 | Cc1ccn(CC(C)C)c(=O)c1-c1ccc2nc(N)ncc2c1 [Example 49, 3-(2-aminoquinazolin-6-yl)-1-isobutyl-4-methylpyridin-2(1H)-one] |  | 2250 nM | 
35 | CCOC(=O)CNc1ccc(-n2ccc(C)c(-c3ccc4nc(N)ncc4c3)c2=O)cc1 [Example 37, ethyl 2-(4-(3-(2-aminoquinazolin-6-yl)-4-methyl-2-oxopyridin-1(2H)-yl)phenylamino)acetate] |  | 181 nM | 
36 | Cc1ccn(CCn2cccn2)c(=O)c1-c1ccc2nc(N)ncc2c1 [Example 60, 1-(2-(1H-pyrazol-1-yl)ethyl)-3-(2-aminoquinazolin-6-yl)-4-methylpyridin-2(1H)-one] |  | 176 nM | 
37 | Cc1ccn(CC2CCC2)c(=O)c1-c1ccc2nc(N)ncc2c1 [Example 48, 3-(2-aminoquinazolin-6-yl)-1-(cyclobutylmethyl)-4-methylpyridin-2(1H)-one] |  | 1410 nM | 
38 | COc1ccc(-n2ccc(C)c(-c3ccc4nc(N)ncc4c3)c2=O)cc1 [Example 31, 3-(2-aminoquinazolin-6-yl)-1-(4-methoxyphenyl)-4-methylpyridin-2(1H)-one] |  |  | IC50 [2, 6]: 17 nM
